# Non-standard residues stand in square brackets, D forms with d. Residues, ends and D or L forms follow the SMILES beside them. Primed or numbered codes have the meaning given here. No end group written: not given here. *: point of attachment. PEG20′ = PEG20 chain (pegylated), attached via a cysteine; C16 diacid = O=C(O)CCCCCCCCCCCCCCC(=O)*; Arachidoyl = CCCCCCCCCCCCCCCCCCCC(=O)*; Stearoyl = CCCCCCCCCCCCCCCCCC(=O)*; Palmitoyl = CCCCCCCCCCCCCCCC(=O)*; Myristoyl = CCCCCCCCCCCCCC(=O)*
# Key:
# [1] = Stability of HBD1 fragments in human plasma; type: in vitro ADME; conditions: 24 and 48 hours incubation at 37° C.
# Description: The peptides were spiked at 1 μg/mL (peptide backbone) into pre-warmed human K2EDTA plasma (at 37° C.) and incubated for up to 48 hours. Aliquots of plasma were extracted at specific time points (0, 24 and 48 hours post spike). Extraction was performed with acetonitrile:water (75:25, v/v) for HBD1 (1-13), HBD1 (1-13) with palmitic acid at the N-terminus (C16:0), HBD1 (3-11) with palmitic acid at the N-terminus (C16:0)) and HBD1 (3-11) with stearic acid at the N-terminus (C18:0) or with acetonitrile:water:formic acid (75:25:0.1, v/v/v) for HBD1 (3-11) and cyclic HBD1 (3-11). The peptides were analyzed using developed LC (C18 reverse phase column)—positive ion electrospray MS/MS methods specific to each peptide. The peak area at each time point was expressed as a percentage of the value obtained for the t=0 minutes time point.
# [2] = system: MC-3T3 E1 clone 4 (CL4) osteoblast cells; experiment: in vitro osteoblast differentiation bioassay (stimulation of osteocalcin protein synthesis); type: cell-based
# Description: Each peptide was tested in a biologic assay measuring its ability to stimulate differentiation of osteoblast cells over a 18-21 day interval (Table 8) or a 14-15 day interval (Table 9) as assessed by the stimulation of osteocalcin protein synthesis. MC-3T3 E1 clone 4 (CL4) osteoblast cells were obtained from ATCC (Manassas, Va., USA). Cells were cultured in α-MEM containing 10% fetal bovine serum (FBS; Thermo Fisher Scientific, Pittsburgh, Pa., USA). After confluency, culture medium was changed to differentiation medium (DM), which contained 10% FBS plus 50 μg/mL ascorbic acid and 4 mM β-glycerol phosphate, with or without a test peptide (1 μg/mL in Table 8 or 1 μmol/L in Table 9). Fresh DM, with or without test peptide, was applied every 72 hours. The cell monolayers were lysed in a modified radioimmunoprecipitation assay (RIPA) buffer. Total cellular protein in the lysates was determined using BCA (Thermo Fisher Scientific, Rockford, Ill., USA). Cell proteins are separated on SDS-PAGE gel and transferred on PVDF membrane for analysis. Osteocalcin detection was performed using anti-osteocalcin antibody at 1:200 dilution (Santa Cruz Biotechnology, Inc, Santa Cruz, Calif., USA) or at 1:3000 dilution (NPT Inc., Chapel Hill, N.C., USA) and visualized using enhanced chemiluminescence (Thermo Fisher Scientific, Rockford, Ill., USA).
# The peptide was tested at different concentrations in a biologic assay measuring its ability to stimulate differentiation of osteoblast cells over a 18 day interval as assessed by the stimulation of osteocalcin protein synthesis. MC-3T3 E1 clone 4 (CL4) osteoblast cells were obtained from ATCC (Manassas, Va., USA). Cells were cultured in α-MEM containing 10% fetal bovine serum (FBS; Thermo Fisher Scientific, Pittsburgh, Pa., USA). After confluency, culture medium was changed to differentiation medium (DM), which contained 10% FBS plus 50 μg/mL ascorbic acid and 4 mM β-glycerol phosphate, with or without an ascending dose of the peptide from 0.1 μg/mL to 4 μg/mL. Fresh DM, with or without the peptide, was applied every 72 hours. The cell monolayers were lysed in a modified radioimmunoprecipitation assay (RIPA) buffer. Total cellular protein in the lysates was determined using BCA (Thermo Fisher Scientific, Rockford, Ill., USA). Cell proteins are separated on SDS-PAGE gel and transferred on PVDF membrane for analysis. Osteocalcin detection was performed using anti-osteocalcin antibody at 1:200 dilution (Santa Cruz Biotechnology, Inc, Santa Cruz, Calif., USA) and visualized using enhanced chemiluminescence (Thermo Fisher Scientific, Rockford, Ill., USA).
# Each peptide was tested in a biologic assay measuring its ability to stimulate differentiation of osteoblast cells over a 15 day interval as assessed by the stimulation of osteocalcin protein synthesis. MC-3T3 E1 clone 4 (CL4) osteoblast cells were obtained from ATCC (Manassas, Va., USA). Cells were cultured in α-MEM containing 10% fetal bovine serum (FBS; Thermo Fisher Scientific, Pittsburgh, Pa., USA). After confluency, culture medium was changed to differentiation medium (DM), which contained 10% FBS plus 50 μg/mL ascorbic acid and 4 mM β-glycerol phosphate, with or without a test peptide (1 μg/mL). Fresh DM, with or without test peptide, was applied every 72 hours for 15 days. The cell monolayers were lysed in a modified radioimmunoprecipitation assay (RIPA) buffer. Total cellular protein in the lysates was determined using BCA (Thermo Fisher Scientific, Rockford, Ill., USA). Cell proteins are separated on SDS-PAGE gel and transferred on PVDF membrane for analysis. Osteocalcin detection was performed using anti-osteocalcin antibody at 1:200 dilution (Santa Cruz Biotechnology, Inc, Santa Cruz, Calif., USA) and visualized using enhanced chemiluminescence (Thermo Fisher Scientific, Rockford, Ill., USA). […]
# [3] = Pharmacokinetic of acylated HBD-1 fragment analogs in male Sprague Dawley rats after subcutaneous injection; type: in vivo; conditions: Table 24, sc, 1 μmol net peptide/kg
# Description: The peptides were reconstituted in saline (0.9% NaCl). Three male Sprague Dawley rats (approximately 6 weeks of age) were used per group. Subcutaneous doses were administered into the right flank of each animal at the target dose level of 1 μmol net peptide/kg. Following dosing, serial whole blood samples (ca. 0.3 mL) were collected from retro-orbital sinus into K2EDTA treated containers. Following each blood sample collection, samples were placed into a cooling block at 4° C. Samples were collected prior to dosing then at 15 and 30 minutes then 1, 2, 4, 6, 8 and 24 hours post dose for subcutaneous injection. Blood samples were centrifuged at 3500×rpm for 10 minutes at 4° C. and resultant plasma aspirated off into clean fully, labelled tubes. Plasma samples were snap frozen following aspiration then stored at −80° C. The peptides were extracted with acetonitrile:water (75:25, v/v) and analyzed using developed LC-MS/MS methods as described in Example 9. The limits of detection of these methods are 0.003 nmol/mL for HBD1 (1-13) with palmitic acid at the N-terminus (C16:0), 0.0008 nmol/mL for HBD1 (3-11) with palmitic acid at the N-terminus (C16:0), 0.0070 nmol/mL for HBD1 (3-11) with stearic acid at the N-terminus (C18:0), and 0.0015 nmol/mL for HBD1 (3-11) with myristic acid at the N-terminus (C14:0), HBD1 (3-11) with arachidic acid at the N-terminus (C20:0), HBD1 (3-11) with palmitic diacid at the N-terminus (C16:0-diacid), HBD1 (3-11) with palmitic acid at the C-terminus (C16:0). All values below these limits of quantification were considered as zero.
# [4] = Table 17, PEGylated fragments, 2 μg/mL, 18-21 day interval
Tlast (last time point with detectable peptide) [3] [h],Molecule,"Fold increase vs DM ± SE [2, 4] [fold]",other results
,CC(C)C[C@@H]1NC(=O)CNC(=O)[C@H](CC(C)C)NC(=O)[C@H](Cc2c[nH]cn2)NC(=O)[C@H](CCCCN)NC(=O)[C@H](CCCCN)NC(=O)[C@@H]2CCCN2C(=O)[C@H](CCC(=O)O)NC(=O)[C@H](CCC(=O)O)NC1=O [compound 77] (cyclo(EEPKKHLGL)),,stability in human plasma (in words) [1]: plasma stability profile similar to that of the corresponding unconjugated linear peptide HBD1 (3-11)
,66 (HHLGLEEPKK; not fully specified; MOD_RES (10)..(10) Pegylated) [compound 66],2.2 ± 0.2,
,63 ([PEG20′]CKHHLGLEEPKKLR; not fully specified (some residues); printed as PEG20-C-KHHLGLEEPKKLR) [compound 63],1.4 ± 0.3,
8,CCCCCCCCCCCCCCCCCCCC(=O)N[C@@H](Cc1c[nH]cn1)C(=O)N[C@@H](CC(C)C)C(=O)NCC(=O)N[C@@H](CC(C)C)C(=O)N[C@@H](CCC(=O)O)C(=O)N[C@@H](CCC(=O)O)C(=O)N1CCC[C@H]1C(=O)N[C@@H](CCCCN)C(=O)N[C@@H](CCCCN)C(=O)O [compound 74] (Arachidoyl-HLGLEEPKK-OH; C-terminus assumed),,
8,CCCCCCCCCCCCCCCC(=O)N[C@@H](Cc1c[nH]cn1)C(=O)N[C@@H](CC(C)C)C(=O)NCC(=O)N[C@@H](CC(C)C)C(=O)N[C@@H](CCC(=O)O)C(=O)N[C@@H](CCC(=O)O)C(=O)N1CCC[C@H]1C(=O)N[C@@H](CCCCN)C(=O)N[C@@H](CCCCN)C(=O)O [compound 72] (Palmitoyl-HLGLEEPKK-OH),,stability in human plasma (in words) [1]: plasma stability profile similar to that of the corresponding unconjugated linear peptide HBD1 (3-11)
6,CCCCCCCCCCCCCC(=O)N[C@@H](Cc1c[nH]cn1)C(=O)N[C@@H](CC(C)C)C(=O)NCC(=O)N[C@@H](CC(C)C)C(=O)N[C@@H](CCC(=O)O)C(=O)N[C@@H](CCC(=O)O)C(=O)N1CCC[C@H]1C(=O)N[C@@H](CCCCN)C(=O)N[C@@H](CCCCN)C(=O)O [compound 71] (Myristoyl-HLGLEEPKK-OH; C-terminus assumed),,
,64 (KHHLGLEEPKKLR; not fully specified; MOD_RES (13)..(13) Pegylated) [compound 64],2.2 ± 0.4,
8,CCCCCCCCCCCCCCCCCC(=O)N[C@@H](Cc1c[nH]cn1)C(=O)N[C@@H](CC(C)C)C(=O)NCC(=O)N[C@@H](CC(C)C)C(=O)N[C@@H](CCC(=O)O)C(=O)N[C@@H](CCC(=O)O)C(=O)N1CCC[C@H]1C(=O)N[C@@H](CCCCN)C(=O)N[C@@H](CCCCN)C(=O)O [compound 73] (Stearoyl-HLGLEEPKK-OH),,"Fold increase vs DM ± SE ([2]; Table 19, dose 1.0 μM, 18 day interval): 3.46 ± 0.47 fold; Fold increase vs DM ± SE ([2]; Table 19, dose 2.0 μM, 18 day interval): 4.48 ± 0.07 fold; Fold increase vs DM ± SE ([2]; Table 19, dose 3.0 μM, 18 day interval): 5.66 ± 0.45 fold; stability in human plasma (in words) [1]: plasma stability profile similar to that of the corresponding unconjugated linear peptide HBD1 (3-11)"
8,CC(C)C[C@H](NC(=O)CNC(=O)[C@H](CC(C)C)NC(=O)[C@H](Cc1c[nH]cn1)NC(=O)CCCCCCCCCCCCCCC(=O)O)C(=O)N[C@@H](CCC(=O)O)C(=O)N[C@@H](CCC(=O)O)C(=O)N1CCC[C@H]1C(=O)N[C@@H](CCCCN)C(=O)N[C@@H](CCCCN)C(=O)O [compound 75] ({C16 diacid}-HLGLEEPKK-OH; C-terminus assumed),,
,65 ([PEG20′]CHHLGLEEPKK; not fully specified (some residues); printed as PEG20-C-HHLGLEEPKK) [compound 65],1.4 ± 0.1,
,67 ([PEG20′]CHLGLEEPKK; not fully specified (some residues); printed as PEG20-C-HLGLEEPKK) [compound 67],1.9 ± 0.2,
8,CCCCCCCCCCCCCCCC(=O)N[C@@H](CCCCN)C(=O)N[C@@H](Cc1c[nH]cn1)C(=O)N[C@@H](Cc1c[nH]cn1)C(=O)N[C@@H](CC(C)C)C(=O)NCC(=O)N[C@@H](CC(C)C)C(=O)N[C@@H](CCC(=O)O)C(=O)N[C@@H](CCC(=O)O)C(=O)N1CCC[C@H]1C(=O)N[C@@H](CCCCN)C(=O)N[C@@H](CCCCN)C(=O)N[C@@H](CC(C)C)C(=O)N[C@@H](CCCNC(=N)N)C(=O)O [compound 78] (Palmitoyl-KHHLGLEEPKKLR-OH),,
8,CCCCCCCCCCCCCCCC(=O)NCCCC[C@H](NC(=O)[C@H](CCCCN)NC(=O)[C@@H]1CCCN1C(=O)[C@H](CCC(=O)O)NC(=O)[C@H](CCC(=O)O)NC(=O)[C@H](CC(C)C)NC(=O)CNC(=O)[C@H](CC(C)C)NC(=O)[C@@H](N)Cc1c[nH]cn1)C(=O)O [compound 76] (H-HLGLEEPKK(Palmitoyl)-OH; N-terminus and C-terminus assumed),,

# Reference: patent US10947285B2, “Compounds, compositions and uses thereof for improvement of bone disorders” (Amolyt Pharma, priority 2017, dated 2021)
